Converted amounts (≈) assume the structure as drawn. “And” between values parts separate entries of the source, which are not always exact repeats. Identical values can stand only once. Like-named read-outs stand apart in the source and are kept apart here.
What was measured:
[1] = test system: S. aureus (Methicillin-R); assay: In vitro activity (geometric mean MIC, serial dilution); type: cell-based; conditions: Staphylococcus aureus; 15 strains; Mueller-Hinton agar, inoculum 10^4 dilution; MIC cutoff 200 mcg./ml.
[2] = test system: Miscellaneous (Salmonella, Shigella, Citrobacter); assay: microbe, parasite or virus in culture; conditions: read-out: Geometric Mean MIC
S. pyogenes = assay: In vitro activity (geometric mean MIC, serial dilution); type: cell-based; conditions: Streptococcus pyogenes; 10 strains; Mueller-Hinton agar, inoculum 10^4 dilution; MIC cutoff 200 mcg./ml.
E. coli Juhl = assay: In vivo activity (Mice, sc); conditions: several determinations listed
Source text: |In vivo Activity of BB-[…] and Related Compounds (Mice, sc) | (PD50 (mgm./kg.)

Proteus (indole-) = assay: In vitro activity (geometric mean MIC, serial dilution); type: cell-based; conditions: read-out: Geometric Mean MIC
Pr. rettgeri = assay: In vitro antibacterial activity (Steers' agar dilution MIC); type: cell-based; conditions: Providencia rettgeri
Sal. enteritidis = assay: as above; type: cell-based; conditions: Salmonella enterica
St. faecalis = assay: as above; type: cell-based; conditions: Enterococcus faecalis
rabbits = assay: Preliminary nephrotoxicity study; type: in vivo; conditions: two rabbits, 100 mg./kg. intravenously
Protocol: A preliminary nephrotoxicity study was carried out by administration of the test compound to a group of two rabbits at 100 mg./kg. intravenously.

Pr. vulgaris = assay: In vitro antibacterial activity (Steers' agar dilution MIC); type: cell-based; conditions: Proteus vulgaris
Serr. marcescens = assay: as above; type: cell-based; conditions: Serratia marcescens
[3] = table 2 (BB-S493), Pr. rettgeri A15167
[4] = table 4 (BB-S 525), Pr. rettgeri
[5] = table 2 (BB-S493), Sal. enteritidis A9531
[6] = table 4 (BB-S 525), Sal. enteritidis
[7] = table 4 (BB-S 525), St. faecalis, read-out: MIC
[8] = table 2 (BB-S493), Pr. vulgaris A9436, read-out: MIC
[9] = table 2 (BB-S493), Pr. vulgaris A9699, read-out: MIC
[10] = table 4 (BB-S 525), Pr. vulgaris, 1st line, read-out: MIC
[11] = table 4 (BB-S 525), Serr. marcescens

SMILES | MIC [1] [µg/mL] | MIC [2] [µg/mL] | MIC (S. pyogenes) [µg/mL] | MIC (Pr. rettgeri; [3]) [µg/mL] | MIC (Pr. rettgeri; [4]) [µg/mL] | MIC (Sal. enteritidis; [5]) [µg/mL] | MIC (Sal. enteritidis; [6]) [µg/mL] | MIC (St. faecalis; [7]) [µg/mL] | MIC (Pr. vulgaris; [8]) [µg/mL] | MIC (Pr. vulgaris; [9]) [µg/mL] | MIC (Pr. vulgaris; [10]) [µg/mL] | MIC (Serr. marcescens; [11]) [µg/mL] | also measured
CNCc1ccccc1CC(=O)N[C@@H]1C(=O)N2C(C(=O)O)=C(CSc3ccc4nn(CC(=O)O)c(=O)n4n3)CS[C@H]12 [BB-S479, 7-[o-(Methylaminomethyl)phenylacetamido]-3-(2-carboxymethyl-2,3-dihydro-s-triazolo[4,3-b]pyridazin-3-on-6-ylthiomethyl)-3-cephem-4-carboxylic Acid] | 35 (≈ 58.4 µM) | 0.4 (≈ 0.667 µM) | 0.04 (≈ 0.0667 µM) | 0.1 (≈ 0.167 µM) | 0.8 (≈ 1.33 µM) | 0.05 (≈ 0.0834 µM) | 0.1 (≈ 0.167 µM) | > 100 | 0.1 (≈ 0.167 µM) | 0.8 (≈ 1.33 µM) | 0.2 (≈ 0.334 µM) | 12.5 (≈ 20.8 µM) | ED50 (E. coli Juhl; Escherichia coli, read-out: PD50): 0.19 mg/kg; PD50 (E. coli Juhl): 0.15 mgm./kg. and 0.12 mgm./kg.; MIC (Proteus (indole-)): 0.5 µg/mL (≈ 0.834 µM); MIC (St. faecalis; table 2 (BB-S493), St. faecalis A9536, read-out: MIC): 100 µg/mL (≈ 167 µM); nephrotoxic potential (rabbits): little nephrotoxic potential; MIC (Pr. vulgaris; table 4 (BB-S 525), Pr. vulgaris, 2nd line, read-out: MIC): 0.8 µg/mL (≈ 1.33 µM); MIC (Serr. marcescens; table 2 (BB-S493), Serr. marcescens A20019, read-out: MIC): 25 µg/mL (≈ 41.7 µM)
Cn1nnnc1SCC1=C(C(=O)O)N2C(=O)[C@@H](NC(=O)[C@H](O)c3ccccc3)[C@H]2SC1 [Cefamandole, reference compound] | 2.4 (≈ 5.19 µM) | 0.3 (≈ 0.649 µM) | 0.04 (≈ 0.0865 µM) | 0.1 (≈ 0.216 µM) | 0.1 (≈ 0.216 µM) | 0.1 (≈ 0.216 µM) | 0.1 (≈ 0.216 µM) | 100 (≈ 216 µM) | 0.2 (≈ 0.432 µM) | 25 (≈ 54.1 µM) | 0.2 (≈ 0.432 µM) | 50 (≈ 108 µM) | MIC (Proteus (indole-); 6 strains, Mueller-Hinton agar, inoculum 10^4 dilution, MIC cutoff 200 mcg./ml.): 0.6 µg/mL (≈ 1.3 µM); MIC (St. faecalis): 50 µg/mL (≈ 108 µM); MIC (Pr. vulgaris): 50 µg/mL (≈ 108 µM); MIC (Serr. marcescens; table 2 (BB-S493), Serr. marcescens A20019): 50 µg/mL (≈ 108 µM)

From patent US4198506A, “2-Carboxyalkyl-2,3-dihydro-6-mercapto-s-triazolo[4,3-b]-pyridazin-3-ones” (Bristol-Myers Company, priority 1979, dated 1980)
